In publication PMC3921447, “Homologous and heterologous desensitization of guanylyl cyclase-B signaling in GH3 somatolactotropes” (Cell and Tissue Research, 2013):

How the values were obtained:
GC-B [1] = target: T1, GC-B (Rattus norvegicus, UniProt P16067); assay: CNP time-course of total cGMP accumulation (rapid homologous desensitization) in GH3 cells; assay type: cell-based; conditions: 100 nM CNP, 1 mM IBMX, n = 3 in triplicate
T1 construct: rapid homologous desensitization of endogenous GC-B receptors in GH3 cells; endogenous in cells; host or cells: GH3 rat somatolactotrope cells
T1 sequence (P16067 17-1047): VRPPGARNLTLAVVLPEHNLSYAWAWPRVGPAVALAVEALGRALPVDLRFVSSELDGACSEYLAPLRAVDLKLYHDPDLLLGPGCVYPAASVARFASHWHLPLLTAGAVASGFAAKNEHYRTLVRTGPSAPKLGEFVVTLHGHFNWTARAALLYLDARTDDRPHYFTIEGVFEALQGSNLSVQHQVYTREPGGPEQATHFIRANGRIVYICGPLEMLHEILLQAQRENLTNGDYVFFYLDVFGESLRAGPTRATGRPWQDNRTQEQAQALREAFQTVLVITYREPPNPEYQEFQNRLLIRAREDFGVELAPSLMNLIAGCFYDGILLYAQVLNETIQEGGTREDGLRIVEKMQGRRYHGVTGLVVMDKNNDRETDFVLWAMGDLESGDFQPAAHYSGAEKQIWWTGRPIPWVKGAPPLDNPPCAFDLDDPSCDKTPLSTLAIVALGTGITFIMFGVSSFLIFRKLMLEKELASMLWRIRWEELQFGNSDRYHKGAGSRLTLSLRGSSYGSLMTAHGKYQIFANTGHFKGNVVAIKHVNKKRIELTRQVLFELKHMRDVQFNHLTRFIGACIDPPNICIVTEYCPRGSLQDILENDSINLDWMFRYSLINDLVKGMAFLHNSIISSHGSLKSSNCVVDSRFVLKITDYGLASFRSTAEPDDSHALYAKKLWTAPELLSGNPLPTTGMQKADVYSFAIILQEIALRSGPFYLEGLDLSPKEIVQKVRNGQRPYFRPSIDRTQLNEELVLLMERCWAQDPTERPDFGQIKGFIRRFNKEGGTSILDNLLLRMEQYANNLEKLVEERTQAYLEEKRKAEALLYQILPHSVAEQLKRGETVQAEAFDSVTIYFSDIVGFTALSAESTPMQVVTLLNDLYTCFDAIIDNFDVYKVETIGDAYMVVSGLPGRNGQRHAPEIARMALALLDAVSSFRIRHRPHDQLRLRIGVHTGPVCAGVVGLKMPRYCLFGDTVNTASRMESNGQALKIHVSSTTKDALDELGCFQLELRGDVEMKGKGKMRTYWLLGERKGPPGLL
Protocol: To characterize the activity of these receptors further , a series of experiments was performed to examine mechanisms of receptor desensitization. Total cGMP accumulation was measured to determine the changes in activity of the GC-A and GC-B receptors when treated over a short time-course with their native ligands, namely ANP and CNP, respectively. GH3 cells were plated at 3 × 10^5 cells/well in a 24-well plate, treated with 100 nM of either ANP or CNP in the presence of the phosphodiesterase inhibitor IBMX (1 mM) for 0 to 15 min and assayed for total cGMP concentration (Fig. 2a, b). […] In another experiment performed with 100 nM ANP instead of CNP, a rapid increase in cGMP accumulation (7.91 ± 0.9 to 164.31 ± 9.1pmol/ml per milligram protein) occurred between 0 and 5 min.
Fig. 2 Rapid homologous desensitization of CNP-dependent but not ANP-dependent cGMP accumulation in GH3 cells. Cells were treated with PSS containing either (a) 100 nM CNP or (b) 100 nM ANP for 0–15 min in the presence of 1 mM IBMX.

GC-B [2] = target: T1, GC-B; assay: Effect of natriuretic peptide pre-treatment on CNP-stimulated (GC-B) cGMP accumulation in GH3 cells; assay type: cell-based; conditions: 100 nM CNP pre-treatment, then 100 nM CNP 15 min with IBMX; ns, P > 0.05; Fig. 3a
Protocol: Having established that GC-B signaling but not that of GC-A receptors, underwent rapid homologous desensitization, we next examined the effect of prolonged exposure of each receptor to its specific ligand. GH3 cells pre-treated with either ANP or CNP for 0 (control) to 6 h reduced the response to a subsequent 15-min treatment of ANP or CNP (with IBMX). […] The amount of cGMP measured from the 15-min pre-treatment sample was reduced by 39.6 ± 0.002 % (***P < 0.001). This effect was maintained up to the 6-h pre-treatment with CNP, which was reduced by 37.9 ± 7.1 % compared with the control (***P < 0.001).
Fig. 3 Effect of chronic exposure to CNP and ANP on GC-B- and GC-A-dependent cGMP accumulation in GH3 cells. Cells were initially treated with (a) 100 nM CNP or (b) 100 nM ANP in PSS without IBMX for 0 to 6 h. The medium was removed and replaced with 100 nM CNP (a) or 100 nM ANP (b) for 15 min in the presence of 1 mM IBMX. […]
In similar experiments designed to examine the effect of ANP pre-exposure to GC-A activity, a significant reduction in cGMP accumulation was observed within 30 min of ANP pre-treatment (by 28.9 ± 3.1 % compared with the control, *P < 0.05). […] In order to test the receptor specificity of the observed down-regulation of GC-B upon pre-treatment with CNP and of GC-A upon pre-treatment with ANP, the effects of ANP on GC-B and CNP on GC-A desensitization were determined. […]

GC-A = conditions: ref Suga et al. [1992]; cited from earlier work
Description: (§1) As activation of either GC-B or GC-A signaling leads to an increase in cGMP concentrations, we examined whether stimulation of each receptor would lead to the desensitization of the other receptor.

αT3-1 cells = conditions: ref Fowkes et al. [2000]; cited from earlier work
Description: as §1

## CC[C@H](C)[C@@H]1NC(=O)[C@H](CCCNC(=N)N)NC(=O)[C@H](CC(=O)O)NC(=O)[C@H](CC(C)C)NC(=O)[C@H](CCCCN)NC(=O)[C@H](CC(C)C)NC(=O)CNC(=O)[C@H](Cc2ccccc2)NC(=O)[C@@H](NC(=O)CNC(=O)[C@H](CCCCN)NC(=O)[C@H](CO)NC(=O)[C@H](CC(C)C)NC(=O)CN)CSSC[C@@H](C(=O)O)NC(=O)CNC(=O)[C@H](CC(C)C)NC(=O)CNC(=O)[C@H](CO)NC(=O)[C@H](CCSC)NC(=O)[C@H](CO)NC(=O)CNC1=O [CNP, C-type natriuretic peptide]
GC-B [1]; 0 min (start of time-course), mean ± SEM
  total cGMP accumulation, 0 min: 6.4 ± 0.7 pmol/ml per milligram protein
GC-B [1]; ***P < 0.001
  rate of cGMP accumulation between 5 to 15 min as % of the initial rate (0 to 5 min): 22.2 ± 3.9%
GC-B [1]; 5 min, mean ± SEM
  total cGMP accumulation, 5 min: 82.7 ± 15.5 pmol/ml per milligram protein
GC-B [1]; 15 min, mean ± SEM
  total cGMP accumulation, 15 min: 117.4 ± 17.6 pmol/ml per milligram protein
GC-B [2]
  difference in reduction of cGMP between 15-min and 6-h pre-treatments: did not significantly differ between the 15-min to 6-h pre-treatments
GC-A
  activation of the reciprocal receptor: can activate the reciprocal receptor, albeit only at pharmacological concentrations
αT3-1 cells
  desensitization of the other receptor: fail to desensitize the other receptor
